The source of these data is patent US20230399287A1, “NOVEL COMPOUNDS” (Sitryx Therapeutics Limited, priority 2020, published 2023).

A value given as a limit tells only on which side of the number the result lay.

One data set has as its system IL-1β. The experiment in a line: THP-1 AlphaLISA IL-1β cytokine assay. The conditions noted are these: Homo sapiens, THP-1, differentiated THP-1 cells. Type of data set: cell-based. Here is the method:
(§1) Measuring Inhibitory Effects on IL-1V and IL-6 Cytokine Output from THP-1s
(§2) The cytokine inhibition profiles of compounds of formula (I) were determined in a differentiated THP-1 cell assay. All assays were performed in RPMI-1640 growth medium (Gibco), supplemented with 10% fetal bovine serum (FBS; Gibco), 1% penicillin-streptomycin and 1% sodium pyruvate unless specified otherwise. The IL-1β and IL-6 cytokine inhibition assays were run in a background of differentiated THP-1 cells as described below. All reagents described were from Sigma-Aldrich unless specified otherwise. Compounds were prepared as 10 mM DMSO stocks.
(§3) THP-1 cells were expanded as a suspension up to 80% confluence in appropriate growth medium. Cells were harvested, suspended, and treated with an appropriate concentration of phorbol 12-myristate 13-acetate (PMA) over a 72 hr period (37° C./5% CO2).
(§4) Following 72 hrs of THP-1 cell incubation, cellular medium was removed and replaced with fresh growth media containing 1% of FBS. Working concentrations of compounds were prepared separately in 10% FBS treated growth medium and pre-incubated with the cells for 30 minutes (37° C./5% CO2). Following the 30 minute compound pre-incubation, THP-1s were treated with an appropriate concentration of LPS and the THP-1s were subsequently incubated for a 24 hr period (37° C./5% CO2). An appropriate final concentration of Nigericin was then dispensed into the THP-1 plates and incubated for 1 hour (37° C./5% CO2) before THP-1 supernatants were harvested and collected in separate polypropylene 96-well holding plates.
(§5) Reagents from each of the IL-1β and IL-6 commercial kits (Perkin Elmer) were prepared and run according to the manufacturer's instructions. Subsequently, fluorescence signal detection in a microplate reader was measured (EnVision® Multilabel Reader, Perkin Elmer).
(§6) Percentage inhibition was calculated per cytokine by normalising the sample data to the high and low controls used within each plate (+/−LPS respectively). Percentage inhibition was then plotted against compound concentration and the 50% inhibitory concentration ([…]) was determined from the resultant concentration-response curve.
For orientation: In Alpha technology, singlet oxygen from a donor bead excites a nearby acceptor bead.

For the next data set, the system named is IL-6. In words: THP-1 AlphaLISA IL-6 cytokine assay. Type of data set: cell-based. The conditions noted are these: Homo sapiens, THP-1, differentiated THP-1 cells, LPS 24 hr then Nigericin 1 hour. How it is done:
as §1, §2, §3, §4, §5, §6

Data set [1] relates to hepatocytes. The experiment in a line: Hepatocyte stability assay (human). In kind it is in vitro ADME. The conditions noted are these: 10 μM compound, 60 min. The text has this:
(§7) Defrosted cryo-preserved hepatocytes (viability>70%) were used to determine the metabolic stability of a compound via calculation of intrinsic clearance (Clint; a measure of the removal of a compound from the liver in the absence of blood flow and cell binding). Clearance data are particularly important for in vitro work as they can be used in combination with in vivo data to predict the half-life and oral bioavailability of a drug.
(§8) The metabolic stability in hepatocytes assay involved a time-dependent reaction using both positive and negative controls. The cells must be pre-incubated at 37° C. then spiked with test compound (and positive control); samples taken at pre-determined time intervals were analysed to monitor the change in concentration of the initial drug compound over 60 minutes. A buffer incubation reaction (with no hepatocytes present) acted as a negative control and two cocktail solutions, containing compounds with known high and low clearance values (verapamil/7-hydroxycoumarin and propranolol/diltiazem), acted as positive controls. • 1. The assay was run with a cell concentration of 0.5×10^6 cells/mL in Leibovitz buffer. • 2. All compounds and controls were run in duplicate. • 3. Compound concentration was 10 μM. • 4. All compounds and controls were incubated with both cells and buffer to show turnover is due to hepatic metabolism. • 5. All wells on the incubation plate had 326.7 μL of either cells or buffer added. • 6. Prior to assay, cell and buffer-only incubation plates were preincubated for 10 mins at 37° C. • 7. The assay was initiated by adding compounds, 3.3 μL of 1 mM in 10% DMSO-90% Buffer; final DMSO concentration is 0.1%. • 8. Samples were taken at regular timepoints (0, 5, 10, 20, 40, 60 min) until 60 mins. • 9. Sample volume was 40 μL and added to 160 μL of crash solvent (acetonitrile with internal standard) and stored on ice. • 10. At the end of the assay, the crash plates were centrifuged at 3500 rpm for 20 mins at 4° C. • 11. 80 μL of clear supernatant was removed and mixed with 80 μL of deionised water before being analysed by LC-MS/MS.
(§9) Raw LC-MS/MS data were exported to, and analysed in, Microsoft Excel for determination of intrinsic clearance. The percentage remaining of a compound was monitored using the peak area of the initial concentration as 100%. Intrinsic clearance and half-life values were calculated using a graph of the natural log of percentage remaining versus the time of reaction in minutes. Half-life (min) and intrinsic clearance (Clint in μL min^−1 10^−6 cells) values were calculated using the gradient of the graph (the elimination rate constant, k) and Equations 1 and 2.

A short description of data set [2]: Hepatocyte stability assay (human). In kind it is in vitro ADME. The conditions noted are these: human, cryopreserved hepatocytes, 10 μM compound, 60 min, read-out: T½.
From the text: as §7, §8, §9

Data set [3] relates to hepatocytes. In words: Hepatocyte stability assay (mouse). In kind it is in vitro ADME. To be noted: 10 μM compound, 60 min.
From the text: as §7, §8, §9

A short description of data set [4]: Hepatocyte stability assay (mouse). Type of data set: in vitro ADME. The conditions noted are these: mouse, cryopreserved hepatocytes, 10 μM compound, 60 min, read-out: T½.
From the text: as §7, §8, §9

Where [5] appears, read: LPS 24 hr then Nigericin 1 hour.

By IC50 is commonly meant the point on the concentration scale where inhibition reaches its midpoint. A high value points to lower potency. Consider `C=C(CC(=O)OC1(c2ccc(C(F)(F)F)cc2)CCOCC1)C(=O)O` [Example 47, 2-methylene-4-oxo-4-((4-(4-(trifluoromethyl)phenyl)tetrahydro-2H-pyran-4-yl)oxy)butanoic acid], for which the IC50 in the data set with IL-1β (setting [5]) was 6.7 µM; in the data set with IL-6, more than 100 µM. Also, the Clint with hepatocytes [1] and in the data set on hepatocytes [3] was less than 3 μL min^−1 10^−6 cells each time. Further, the half-life at 10 μM in data set [2] and in data set [4] was more than 7.67 h in each case.

Consider `C=C(CC(=O)OC1(c2ccc(C(F)(F)F)cc2)CC2(CC2)C1)C(=O)O` [Example 61, 2-methylene-4-oxo-4-((5-(4-(trifluoromethyl)phenyl)spiro[2.3]hexan-5-yl)oxy)butanoic acid], for which the results for the 50% inhibitory concentration (IC50) with IL-1β (setting [5]) and in the data set on IL-6 were 5.5 µM and more than 100 µM, respectively. In addition, the Clint came to 6 μL min^−1 10^−6 cells in the data set with hepatocytes [1] and 21 μL min^−1 10^−6 cells in the data set with hepatocytes [3]. The half-life at 10 μM was found to be 3.58 h in data set [2] and 1.72 h in data set [4].

On to `C=C(CC(=O)OC1(c2ccc(C(F)(F)F)cc2)COC1)C(=O)O` [Example 24, 2-methylene-4-oxo-4-((3-(4-(trifluoromethyl)phenyl)oxetan-3-yl)oxy)butanoic acid], for which the figures for the half-maximal inhibitory concentration (IC50) in the data set with IL-1β (setting [5]) and with IL-6 were 1.4 µM and more than 100 µM, respectively. Moreover, the Clint is less than 3 μL min^−1 10^−6 cells in the data set with hepatocytes [1] and 11 μL min^−1 10^−6 cells in the data set with hepatocytes [3]. For the same molecule, the half-life at 10 μM is more than 7.67 h in data set [2] and 2.42 h in data set [4].

In the case of `C=C(CC(=O)OC1(c2ccc(C(F)(F)F)c(F)c2)CCC1)C(=O)O` [Example 17, 4-(1-(3-fluoro-4-(trifluoromethyl)phenyl)cyclobutoxy)-2-methylene-4-oxobutanoic acid], the 50% inhibitory concentration (IC50) with IL-1β (setting [5]) was 2 µM; in the data set with IL-6, more than 31.6 µM. The Clint in the data set on hepatocytes [1] came to 11 μL min^−1 10^−6 cells; with hepatocytes [3], 9 μL min^−1 10^−6 cells. Moreover, the half-life at 10 μM in data set [2] was determined as 2.62 h; in data set [4] it was 3.53 h.

For `C=C(CC(=O)O[C@]1(c2ccc(C(F)(F)F)cc2)C[C@H](OC)C1)C(=O)O` [Example 42, 4-((cis)-3-methoxy-1-(4-(trifluoromethyl)phenyl)cyclobutoxy)-2-methylene-4-oxobutanoic acid], the figures for the IC50 with IL-1β (setting [5]) and in the data set with IL-6 were 17.1 µM and more than 31.6 µM, respectively. Moreover, the Clint is listed as 4 μL min^−1 10^−6 cells in the data set with hepatocytes [1] and less than 3 μL min^−1 10^−6 cells with hepatocytes [3]. Moreover, the values for the half-life at 10 μM in data set [2] and in data set [4] were 7.47 h and more than 7.67 h, respectively.

Take `C=C(C(=O)O)C(C)(C)C(=O)OC1(c2ccc(C(F)(F)F)cc2)CCC1` [Example 30, 3,3-dimethyl-2-methylene-4-oxo-4-(1-(4-(trifluoromethyl)phenyl)cyclobutoxy) butanoic acid]: the results for the half-maximal inhibitory concentration (IC50) in the data set on IL-1β (setting [5]) and in the data set on IL-6 were 1.2 µM and more than 100 µM, respectively. Moreover, the Clint was found to be 41 μL min^−1 10^−6 cells in the data set on hepatocytes [1] and 104 μL min^−1 10^−6 cells with hepatocytes [3]. Also, the half-life at 10 μM in data set [2] stood at 0.617 h; in data set [4], 0.25 h.

Turning to `C=C(CC(=O)OC1(c2ccc(C(F)(F)F)cc2)CC(F)(F)C1)C(=O)O` [Example 29, 4-(3,3-difluoro-1-(4-(trifluoromethyl)phenyl)cyclobutoxy)-2-methylene-4-oxobutanoic acid], the values for the half-inhibitory concentration (IC50) with IL-1β (setting [5]) and in the data set on IL-6 were 1.3 µM and more than 100 µM, respectively. In addition, the figures for the Clint in the data set with hepatocytes [1] and in the data set with hepatocytes [3] were 11 μL min^−1 10^−6 cells and 20 μL min^−1 10^−6 cells, respectively. Further, the half-life at 10 μM in data set [2] is 2.38 h; in data set [4] it was 1.32 h.

As to `C=C(CC(=O)OC1(c2ccc(C#N)cc2)CCC1)C(=O)O` [Example 25, 4-(1-(4-cyanophenyl)cyclobutoxy)-2-methylene-4-oxobutanoic acid], the half-inhibitory concentration (IC50) in the data set on IL-1β (setting [5]) is 15.5 µM; with IL-6, more than 100 µM. The results for the Clint in the data set on hepatocytes [1] and in the data set with hepatocytes [3] were 4 μL min^−1 10^−6 cells and 9 μL min^−1 10^−6 cells, respectively. In addition, the half-life at 10 μM turned out to be 5.65 h in data set [2] and 2.95 h in data set [4].

Turning to `C=C(C(=O)O)C1(C(=O)OC2(c3ccc(C(F)(F)F)cc3)CCC2)CC1` [Example 39, 2-(1-((1-(4-(trifluoromethyl)phenyl)cyclobutoxy)carbonyl)cyclopropyl)acrylic acid], the half-maximal inhibitory concentration (IC50) was 1.5 µM in the data set on IL-1β (setting [5]) and more than 100 µM in the data set on IL-6. Besides, the Clint in the data set with hepatocytes [1] is given as 18 μL min^−1 10^−6 cells; with hepatocytes [3], 45 μL min^−1 10^−6 cells. The half-life at 10 μM in data set [2] stood at 1.08 h; in data set [4], 0.8 h.

Consider `C=C(CC(=O)OC1(c2ccc(C(F)(F)F)cc2)CC2(CCC2)C1)C(=O)O` [Example 35, 2-methylene-4-oxo-4-((2-(4-(trifluoromethyl)phenyl)spiro[3.3]heptan-2-yl)oxy)butanoic acid], for which the figures for the half-maximal inhibitory concentration (IC50) in the data set on IL-1β (setting [5]) and with IL-6 were 8.8 µM and more than 31.6 µM, respectively. For the same molecule, the Clint is on record as 14 μL min^−1 10^−6 cells in the data set on hepatocytes [1] and 73 μL min^−1 10^−6 cells with hepatocytes [3]. Moreover, the half-life at 10 μM is 1.43 h in data set [2] and 0.5 h in data set [4].

With `C=C(CC(=O)OC1(c2ccc(C(F)(F)F)cn2)CCC1)C(=O)O` [Example 27, 2-methylene-4-oxo-4-(1-(5-(trifluoromethyl)pyridin-2-yl)cyclobutoxy)butanoic acid], the results for the IC50 with IL-1β (setting [5]), in the data set on IL-1β (data from repeated experiments) and with IL-6 were 1.4 µM, 4 µM and more than 100 µM, respectively. For the same molecule, the Clint in the data set with hepatocytes [1] and in the data set with hepatocytes [3] was less than 3 μL min^−1 10^−6 cells throughout. For the same molecule, the half-life at 10 μM in data set [2] and in data set [4] was more than 7.67 h in each case.

In the case of `C=C(CC(=O)OC1(c2ccc(C(F)(F)C(F)(F)F)cc2)CCC1)C(=O)O` [Example 31, 2-methylene-4-oxo-4-(1-(4-(perfluoroethyl)phenyl)cyclobutoxy)butanoic acid], the IC50 is 3.4 µM in the data set on IL-1β (setting [5]) and more than 100 µM with IL-6. Also, the Clint in the data set on hepatocytes [1] was 11 μL min^−1 10^−6 cells; in the data set with hepatocytes [3] it was 38 μL min^−1 10^−6 cells. Also, the half-life at 10 μM in data set [2] was 2.33 h; in data set [4], 0.7 h.

Turning to `C=C(CC(=O)OC1(c2ccc(Br)cc2)COC1)C(=O)O` [Example 23, 4-((3-(4-bromophenyl)oxetan-3-yl)oxy)-2-methylene-4-oxobutanoic acid], the IC50 is 1.4 µM in the data set on IL-1β (setting [5]) and more than 100 µM in the data set on IL-6. In addition, the Clint is less than 3 μL min^−1 10^−6 cells in the data set with hepatocytes [1] and 12 μL min^−1 10^−6 cells in the data set on hepatocytes [3]. For the same molecule, the half-life at 10 μM in data set [2] is more than 7.67 h; in data set [4], 2.1 h.
